According to patent US4965264A, “Thienocinnoline compounds and their pharmaceutical use” (Yoshitomi Pharmaceutical Industries, Ltd., priority 1987, dated 1990):

Legend:
leukocytes = assay: Action on leukocyte-phagocytosis; format: cell-based, mouse (ICR); details: Mus musculus, 20 min, 37° C., read-out: potentiating action on leukocyte phagocytosis, ratio of phagocytic leukocytes relative to controls
Procedure: The experiment was performed in accordance with the method by Stossel et al. [Journal of Clinical Investigation, vol. 51, 615 (1972)].
(§1) ICR mice weighing 30-35 g were intraperitoneally administered with glycogen. Three hours later, the leukocytes in the abdominal cavity were collected. A leukocyte suspension of 5×10^6 cells/ml was prepared and the test compound was added to 200 μl of the cell suspension, followed by further addition of 100 μl of mouse serum and 100 μl of dead yeast (1×10^8 particles/ml) thereto. The mixture was incubated at 37° C. for 20 minutes. By observing more than 200 leukocytes in the reaction mixture under a microscope (400 magnifications), the number of the leukocytes which had phagocytosed at least one dead yeast was counted. The ratio of the number of phagocytic leukocytes treated with 0.1 μM of the test compounds relative to that of phagocytic leukocytes of controls was estimated. The potentiating actions on phagocytosis of the compounds of Examples 1 and 9 were 160% and 158% respectively.

peritoneal macrophages = assay: Action on macrophage-phagocytosis; format: cell-based; details: Rattus norvegicus, read-out: potentiating action on macrophage phagocytosis, relative ratio of phagocytic macrophages
Procedure: as §1
Casein sodium was intraperitoneally administered to rats. Three to four days later, peritoneal macrophages were collected. The phagocytosis was examined, and the relative ratio of phagocytic macrophages of the rat treated with 0.1 μM of the test compound was calculated in the same manner as Experimental Example 4. The potentiating actions on phagocytosis of the compounds of Examples 2, 8 and 10 were 146%, 167% and 148% respectively.

E. coli 0-111 strain = assay: Infection-protective action (E. coli infection in cyclophosphamide-treated mice); format: in vivo, mouse (male ICR); details: 3 mg/kg orally for 3 days; 7 days after E. coli inoculation; cyclophosphamide 200 mg/kg i.p.
Procedure: Cyclophosphamide was intraperitoneally administered to male ICR mice (weighing 23-27 g, aged 5 weeks) at the dosage of 200 mg/kg. Four days later, […] of E. coli 0-111 strain was subcutaneously inoculated into the mice (Controls). The test compounds (3 mg/kg) were orally administered to the mice for 3 days from the following day of the administration of cyclophosphamide. The survival rate of the treated mice relative to controls 7 days after the inoculation of E. coli was compared.

[1] = test system: amnesia induced by electroconvulsive shock; assay: Action on experimental amnesia (electroconvulsive shock, step-through passive avoidance); format: in vivo, mouse (male ddY); details: Mus musculus, ip; i.p. immediately after ECS; latency 3 h after acquisition trial; read-out: Anti-amnesia Action, MED
Procedure: The experiment was carried out in accordance with the method described by Sara in Psychopharmacologia, vol. 36, 59 (1974). Male ddY mice weighing 23-26 g, 20 animals per group, were used, and a step-through passive avoidance reflex practicing box consisting of illuminated chamber and dark chamber was used as the experimental apparatus. As the acquisition trial of passive avoidance reflex, the animals were placed in the illuminated chamber and then allowed to enter the dark one. As soon as the animals entered the dark chamber, footshock was applied to the mouse. Experimental amnesia was caused by applying electroconvulsive shock [ECS]soon after the acquisition trial. As the experimental trial, the animals were placed in the illuminated chamber three hours after the acquisition trial, and the time which the animals took to enter the dark chamber (latency) was measured until 600 seconds. The test compounds were administered intraperitoneally (i.p.) immediately after the application of ECS. For the evaluation of the effects, antagonistic actions against the reduction in latency, caused by the application of ESC were examined.

benzodiazepine receptors = assay: Displacement of tritiated diazepam, benzodiazepine receptor binding (synaptosome fraction of cerebral cortex); design: species or system rat (male Wistar); details: displacement of 2 nM tritiated diazepam, rat cortex synaptosomes, pH 7.4, 0°C, 20 min; read-out: Affinity to BZP Receptors, Ki
Procedure: The experiment for specific affinity to benzodiazepine receptors was carried out in accordance with the method described in Life Science, vol. 20, 2101 (1977).
The crude cyhaptosome fraction was isolated from the cerebral cortex of male Wistar rats aged 9-10 weeks, and was suspended in 50 mM Tris-hydrochloric acid buffer solution (pH 7.4) containing 120 mM sodium chloride and 5 mM potassium chloride. These suspensions were used for the experiment.
The test compounds in several different concentrations and tritiated diazepam (in final concentration of 2 nM) were added to the synaptosome suspensions, and the mixtures were incubated at 0° C. for 20 minutes. These suspensions were filtered with Whatman GF/B glassfiber filters. After the filters were washed with the above-mentioned buffer solution, the radioactivity left on the filters was measured with the use of a liquid scintillation counter.
Specific binding was determined by subtracting binding in the presence of 10^-6 M unlabeled diazepam from total binding.
According to the foregoing experimental method, the binding force to benzodiazepine receptors of the compound of the present invention is evaluated from its displacement ability for tritiated diazepam at its binding site, which is represented by Ki value (nM).

Row | Ki (benzodiazepine receptors) [µM] | SMILES | activity at 0.1 µM (leukocytes) [%] | activity at 0.1 µM (peritoneal macrophages) [%] | effect on survival rate relative to controls (E. coli 0-111 strain) | minimal effective dose [1] [mg/kg]
1 | 0.03 | O=C1CC2CCc3sc(Br)cc3C2=NN1c1ccccc1 (stereo not drawn) [Example 4, 2-bromo-8-phenyl-4,5,5a,6,7,8-hexahydrothieno[2,3-h]-cinnolin-7-one] | – | – | – | 0.5
2 | 0.018 | Cc1cc2c(s1)CCC1CC(=O)N(c3ccccc3)N=C21 (stereo not drawn) [Example 5, 2-methyl-8-phenyl-4,5,5a,6,7,8-hexahydrothieno[2,3-h]cinnolin-7-one] | – | – | – | 0.25
3 | 0.012 | O=C1CC2CCc3sc(Br)cc3C2=NN1c1ccc(Cl)cc1 (stereo not drawn) [Example 6, 2-bromo-8-(4-chlorophenyl)-4,5,5a,6,7,8-hexahydrothieno[2,3-h]cinnolin-7-one] | – | – | – | –
4 | 0.06 | O=C1CC2CCc3sc(Br)cc3C2=NN1c1ccccn1 (stereo not drawn) [Example 7, 2-bromo-8-(2-pyridyl)-4,5,5a,6,7,8-hexahydrothieno[2,3-h]cinnolin-7-one] | – | – | – | < 0.5
5 | 0.007 | Cc1ccc(N2N=C3c4cc(Br)sc4CCC3CC2=O)cc1 (stereo not drawn) [Example 10, 2-bromo-8-(4-methylphenyl)-4,5,5a,6,7,8-hexahydrothieno[2,3-h]cinnolin-7-one] | – | 148 | – | –
6 | 0.0051 | COc1ccc(N2N=C3c4cc(C)sc4CCC3CC2=O)cc1 (stereo not drawn) [Example 14, 2-Methyl-8-(4-methoxyphenyl)-4,5,5a,6,7,8-hexahydrothieno[2,3-h]cinnolin-7-one] | – | – | – | 0.25
7 | 0.01 | Cc1ccc(N2N=C3c4cc(C)sc4CCC3CC2=O)cc1 (stereo not drawn) [Example 24, 2-Methyl-8-(4-methylphenyl)-4,5,5a,6,7,8-hexahydrothieno[2,3-h]cinnolin-7-one] | – | – | – | –

The next lines start with the compound.

Row | SMILES | Ki (benzodiazepine receptors) [µM] | activity at 0.1 µM (leukocytes) [%] | activity at 0.1 µM (peritoneal macrophages) [%] | effect on survival rate relative to controls (E. coli 0-111 strain) | minimal effective dose [1] [mg/kg]
8 | O=C1CC2CCc3sccc3C2=NN1c1ccccc1 (stereo not drawn) [Example 1, 8-phenyl-4,5,5a,6,7,8-hexahydrothieno[2,3h]cinnolin-7-one] | – | 160 | – | – | –
9 | O=C1CC2CCc3sccc3C2=NN1c1ccc(Cl)cc1 (stereo not drawn) [Example 2, 8-(4-chlorophenyl)4,5,5a,6,7,8-hexahydrothieno[2,3-h]cinnolin-7-one] | – | – | 146 | significant increasing effects on survival rate | –
10 | O=C1CC2CCc3sccc3C2=NN1c1ccccn1 (stereo not drawn) [Example 3, 8-(2-pyridyl)4,5,5a,6,7,8-hexahydrothieno[2,3-h]cinnolin-7-one] | 0.28 | – | – | – | 0.1
11 | Cc1ccc(N2N=C3c4ccsc4CCC3CC2=O)cc1 (stereo not drawn) [Example 8, 8-(4-methylphenyl)-4,5,5a,6,7,8-hexahydrothieno[2,3-h]cinnolin-7-one] | – | – | 167 | significant increasing effects on survival rate | –
12 | COc1ccc(N2N=C3c4ccsc4CCC3CC2=O)cc1 (stereo not drawn) [Example 9, 8-(4-methoxyphenyl)4,5,5a,6,7,8-hexahydrothieno[2,3-h]cinnolin-7-one] | 0.012 | 158 | – | – | 0.5
13 | COc1ccc(N2N=C3c4cc(Br)sc4CCC3CC2=O)cc1 (stereo not drawn) [Example 11, 2-bromo-8-(4-methoxyphenyl)-4,5,5a,6,7,8-hehahydrothieno[2,3-h]cinnolin-7-one] | 0.0045 | – | – | significant increasing effects on survival rate | –
